Experimental data from PubChem BioAssay AID743267 (Broad Institute, 2014).

Each compound was assayed on human bronchial epithelial cells, CFTR corrector, plate reader (assay: rescue of ΔF508 CFTR function, airway epithelium – human bronchial epithelial cells, plate reader, cherry-pick, two tests, dose response (AID 743267)). Conditions: measured here: test 1 replicate run.

For COc1cccc(-c2ccc(C3[C@@H]4CN(S(=O)(=O)c5cccc(OC)c5)C[C@H]3N4)cc2)c1 (some centres undefined), which AC50 is on record?
Its AC50 is 13.5 µM.

With O=C(C1CCCC1)N1CC(=O)N2[C@H](CO)[C@@H](c3ccc(-c4ccccc4F)cc3)[C@@H]2C1 as the compound, how does the AC50 read?
The AC50 was 4.47 µM.

For O=C(C1CC1)N1CC(=O)N2[C@H](CO)[C@@H](c3ccc(-c4ccccc4F)cc3)[C@@H]2C1, which AC50 is on record?
Its AC50 is 8.99 µM.

How did the AC50 turn out when COc1ccc(-c2ccc3c(c2)[C@H]2[C@H](CCN2S(=O)(=O)c2ccc(OC)cc2)[C@@H](CO)N3C)cc1 was run?
The AC50 was 9.59 µM.

With CN1c2ccc(-c3ccc(F)cc3)cc2[C@H]2[C@H](CCN2S(=O)(=O)c2ccc(F)cc2)[C@H]1CO as the compound, how does the AC50 read?
The AC50 was 6.55 µM.

For CN1C(=O)c2cc(NC(=O)c3ccc(Cl)cc3)ccc2OC[C@@H]2O[C@H](CC(=O)NCc3cccc(F)c3)CC[C@H]21, which AC50 is on record?
Its AC50 is 4.62 µM.

O=C(Cc1ccccc1)N1CC(=O)N2[C@H](CO)[C@@H](c3ccc(-c4ccccc4)cc3)[C@@H]2C1 was tested. Which AC50 did it give?
The AC50 was 24.6 µM.

With CN1c2ccc(-c3ccc(F)cc3)cc2[C@H]2[C@H](CCN2S(=O)(=O)c2cccc(F)c2)[C@@H]1CO as the compound, how does the AC50 read?
The AC50 was 7.66 µM.

CO[C@@H](CN(C)S(=O)(=O)c1ccc(C)cc1)[C@H](C)CN([C@@H](C)CO)S(=O)(=O)c1cccc(Cl)c1 was tested. Which AC50 did it give?
Its AC50 is 5.49 µM.

With COc1ccc(S(=O)(=O)N2CC[C@@H]3[C@H](CO)N(C)c4ccc(-c5ccc(F)cc5)cc4[C@@H]32)cc1 as the compound, how does the AC50 read?
Its AC50 is 16 µM.

Same assay, conditions: measured here: test 2 replicate run

For O=C1/C(=C\c2cc(Cl)c(O)c(Cl)c2)SC(=S)N1Cc1ccccc1, which AC50 is on record?
Its AC50 is 3.15 µM.

Which AC50 does the source give for Cc1ccnc2c1ccc1cccnc12 here?
Its AC50 is 18.3 µM.

Which AC50 does the source give for COc1cc2c(C#CCCO)c(-c3ccsc3)oc(=O)c2cc1OC here?
Its AC50 is 5.52 µM.

With C=CCN=c1scc(C)n1/N=C/c1ccc(O)c(O)c1 as the compound, how does the AC50 read?
The AC50 was > 50 µM.

COCCNC(=O)NC12CC3(C)CC(C)(CC(C)(C3)C1)C2 was tested. Which AC50 did it give?
The AC50 was > 50 µM.

Which AC50 does the source give for COc1cc(C(=O)Nc2ccccc2C(=O)Nc2ccccn2)cc(OC)c1OC here?
The AC50 was 4.59 µM.

With Cn1cccc1/C=C1\SC(=Nc2ccc(O)cc2)NC1=O as the compound, how does the AC50 read?
The AC50 was 0.315 µM.

For CO[C@@]12[C@@H]3N[C@@H]3CN1C1=C(C(=O)C(N)=C(C)C1=O)[C@@H]2COC(N)=O, which AC50 is on record?
The AC50 was 11.5 µM.

With O=C1NC(=Nc2cccnc2)S/C1=C/c1ccc(F)cc1 as the compound, how does the AC50 read?
Its AC50 is 9.27 µM.

NS(=O)(=O)c1ccc(Cl)c(S(N)(=O)=O)c1 was tested. Which AC50 did it give?
The AC50 was 1.16 µM.

COc1ccc(C(=O)OCC(=O)N2C(C)CCCC2C)cc1S(=O)(=O)N1CCOCC1 (centres undefined) was tested. Which AC50 did it give?
Its AC50 is 29.6 µM.

With COc1ccc2cc(CN(CC3CCCO3)C(=S)Nc3ccccc3)c(=O)[nH]c2c1 (centres undefined) as the compound, how does the AC50 read?
The AC50 was > 50 µM.

CCOc1ccccc1N1CCN(C(=O)c2cc3ccccc3cc2OC)CC1 was tested. Which AC50 did it give?
Its AC50 is 3.45 µM.

Which AC50 does the source give for CCC1=Nc2cc(C(=O)NCc3cccnc3)ccc2Sc2ccc(C)cc21 here?
Its AC50 is 6.64 µM.

How did the AC50 turn out when N#C/C(=C/c1ccc(N2CCCCC2)o1)C(=O)Nc1ccc2ccccc2c1 was run?
The AC50 was 6.64 µM.

For Cn1c(CC(=O)NN)c(Sc2ccccc2)c2ccccc21, which AC50 is on record?
The AC50 was > 50 µM.

Which AC50 does the source give for O=[N+]([O-])c1ccc(N2CCOCC2)c2c1no[n+]2[O-] here?
The AC50 was 2.76 µM.

For O=C(NCCN1C(=O)S/C(=C\c2ccc(OC(F)F)cc2)C1=O)c1cnccn1, which AC50 is on record?
Its AC50 is 1.85 µM.

With Nc1nc(Cl)nc2c1ncn2C1CC(O)C(CO)O1 (centres undefined) as the compound, how does the AC50 read?
Its AC50 is 2.73 µM.

CCCCn1c(CN2CCN(c3cccc(Cl)c3)CC2)nc2c1c(=O)[nH]c(=O)n2C was tested. Which AC50 did it give?
Its AC50 is 4.31 µM.

How did the AC50 turn out when Cc1cc(C(=O)CCC(=O)NC(C)c2ccc(S(N)(=O)=O)cc2)c(C)s1 (centres undefined) was run?
The AC50 was > 50 µM.

COc1ccc(NC(=O)C2(C)Cc3c(-c4cccc(NC(C)=O)c4)ccnc3O2)cc1 (centres undefined) was tested. Which AC50 did it give?
Its AC50 is 4.58 µM.

Which AC50 does the source give for CC(=O)Oc1c(C)cc(Cl)cc1C(=O)Nc1ccc([N+](=O)[O-])cc1Cl here?
Its AC50 is 1.38 µM.

With CCc1ccc(-c2nc(C(N)=O)c3[nH]c(=O)n(-c4ccccc4OC)c3n2)cc1 as the compound, how does the AC50 read?
Its AC50 is 1.33 µM.

CC1CCN(C(=O)C2COc3ccccc3O2)CC1 (centres undefined) was tested. Which AC50 did it give?
The AC50 was 35.1 µM.

How did the AC50 turn out when CC1(C)Cc2c(c(-c3ccco3)nc3sc4c(NCCN5CCOCC5)ncnc4c23)CO1 was run?
Its AC50 is 3.92 µM.

With CC1(C(=O)NCc2cccs2)Cc2c(-c3ccc4c(c3)OCO4)ccnc2O1 (centres undefined) as the compound, how does the AC50 read?
Its AC50 is 2.69 µM.

Which AC50 does the source give for CCCn1c(CN2CCN(C(=O)OCC)CC2)nc2cc(NC(=O)CC)ccc21 here?
Its AC50 is 4.34 µM.

Which AC50 does the source give for O=S(=O)(Nc1ccc(F)cc1Cl)c1ccc(-c2cnc(C3CC3)o2)cc1 here?
The AC50 was 2.23 µM.

With COc1ccc(N2CCc3c(C)nc4c(OC)cc(OC)cc4c32)cc1 as the compound, how does the AC50 read?
Its AC50 is > 50 µM.

Which AC50 does the source give for N#Cc1c(-c2ccc(F)cc2)c(-c2ccc(F)cc2)nn(CCO)c1=O here?
Its AC50 is 2.57 µM.

Which AC50 does the source give for COc1ccc2c(c1)/C(=C/c1cc(OC)c(OC)c(OC)c1)C(=O)N2 here?
Its AC50 is 2.04 µM.

For Cc1cc(NC(=O)CN2C(=O)NC3(CCCCCC3)C2=O)ccc1Br, which AC50 is on record?
The AC50 was 8.4 µM.

How did the AC50 turn out when COc1cccc(C(=O)Nc2sc3c(c2C#N)CCN(C(C)=O)C3)c1 was run?
The AC50 was 1.36 µM.

With CC1CCN(C(=O)c2ccc(S(=O)(=O)N3CCCC3)cc2)CC1 as the compound, how does the AC50 read?
The AC50 was > 50 µM.

How did the AC50 turn out when Cc1noc(C)c1COc1ccc(C(=O)NNC(=O)c2ccccc2)cc1 was run?
The AC50 was 6.4 µM.

With COC(=O)/C=C/c1ccccc1S(=O)(=O)N(Cc1ccccc1)Cc1ccco1 as the compound, how does the AC50 read?
Its AC50 is 3.04 µM.

How did the AC50 turn out when Cc1ncc(CO)c(/C=N/Nc2ccc(C(F)(F)F)cn2)c1O was run?
The AC50 was 1.18 µM.

COc1ccc(-c2ccc(OC)c(OC)c2OC)cc1 was tested. Which AC50 did it give?
Its AC50 is 3.92 µM.

For Fc1ccc(/C=N/NC(=S)Nc2ccc(Cl)cc2Cl)cc1, which AC50 is on record?
The AC50 was 32.2 µM.

For COc1cccc2c1C(=O)c1c(O)c3c(c(O)c1C2=O)CC(O)(C(C)=O)CC3OC1CC(N(C)C)C(O)C(C)O1 (centres undefined), which AC50 is on record?
The AC50 was 14.8 µM.

Cc1cc2c(cc1S(=O)(=O)Nc1ccc(F)cc1)n(C)c(=O)c(=O)n2C was tested. Which AC50 did it give?
The AC50 was 43.2 µM.

For N#CC1=C(N)Oc2c(ccc3cccnc23)C1c1ccccc1 (centres undefined), which AC50 is on record?
Its AC50 is 2.97 µM.

COC(=O)c1ccc(S(=O)(=O)N2CCc3ccccc32)cc1 was tested. Which AC50 did it give?
Its AC50 is 19.1 µM.
